This is an account of results in patent US20140039031A1, “PHARMACEUTICAL FORMULATIONS OF ACETYL-11-KETO-B-BOSWELLIC ACID, DIINDOLYLMETHANE, AND CURCUMIN FOR PHARMACEUTICAL APPLICATIONS” (Dispersol Technologies. LLC, priority 2011, published 2014).

Series [1] in a line: Bioavailability (pharmacokinetic) study of AKBA formulations, oral gavage. The series is classed as in vivo, Sprague-Dawley rats. The conditions noted are these: rat, dose equivalent to 50 mg/kg AKBA, * statistically significant. As for the experimental part: A study was performed to evaluate the pharmacokinetic parameters of AKBA compositions. For the study, adult male Sprague-Dawley rats (275-300 grams, 63-67 days) were caged individually and maintained on a normal rodent chow diet with free access to water. Rats were randomly divided into groups of 4 rats with each group receiving one formulation. Prior to dosing, each formulation was reconstituted in deionised water. The formulations were administered as a dose equivalent to 50 mg/kg AKBA. Each formulation was delivered by 1 mL oral gavage via a pharyngeal tube such that each group of 4 rats received a different formulation. Each formulation was administered to dose AKBA at a concentration of 15 mg/l mL to prevent spontaneous release through the pyloric sphincter (volumetric dose below 4 mL/kg body weight).
The administered formulations were: […]
The catheters of the rats were flushed daily with 300 μL of 50 U/mL heparinized normal saline. Blood samples of approximately 300 μL were collected from the jugular vein catheter at 0, 0.5, 1, 1.5, 2, 2.5, 3, 3.5, 4, 4.5, 5, 5.5, 6 and 8 hours after dosing using a 1 mL syringe and attached […] needle. Blood was slowly extracted into the needle through the catheter. The blood samples were placed into preheparinized 1.5 mL microcentrifuge tubes. Withdrawn blood was replaced with equal volumes of heparinized saline by injecting through the jugular vein catheter. The bioavailability of the API was then determined by monitoring the API levels in the blood over time.

The nature of series [2]: Dissolution testing under non-sink conditions (USP XXIX method A enteric dissolution test). The series is classed as physicochemical. To be noted: pH 6.8 buffer, read from FIG. 6. As for the experimental part:
Dissolution tests were performed with a dissolution apparatus (VK 7000 Dissolution Tester with a VK 8000 Autosampler). The testing was carried out according to a published method (USP XXIX method A enteric dissolution test); non-sink conditions were maintained throughout the testing using 1 L of final neutral media. The solution of 0.1N HCl (pH of 1.2) with a formulation present was stirred at 50 rpm for 2 hours and then the solution was converted to 0.2M Phosphate Buffer (pH of 6.8) and stirring continued up to 12 hours. At times of 60, 120, 125, 135, 150, 165, 180, 210, 240, 300, 360, 480, and 720 minutes, three×5 mL samples were removed and analyzed for soluble AKBA.

The nature of series [3]: Solubility enhancement of AKBA by combination of polymer carriers and surfactants (UV-Visible). It is filed as physicochemical. To be noted: pH 6.8 phosphate buffer; 20 mg AKBA in 10 mL; shaken at least 72 hours at 37° C.; 0.45 micron filter. The method, then: Evaluation of Solubility Enhancement Capability of the Combination of Polymer Carriers (Thermal Binders) and Surfactants for Solubilizing AKBA.
20 mg of AKBA was placed in a 10 mL cuvette, followed by the desired amount of polymer carriers and/or surfactants to be studied to give the desired ratio of materials. A pH 6.8 phosphate buffer was added as needed to bring the volume up to 10 mL. […] The resulting material was filtered through a 0.45 micron filter and analyzed by UV-Visible spectroscopy to determine the AKBA content.

A short description of series [4]: Solubility enhancement of AKBA by polymer carriers (thermal binders) (UV-Visible). The conditions noted are these: pH 6.8 phosphate buffer; 20 mg AKBA in 10 mL; shaken at least 72 hours at 37° C.; 0.45 micron filter. It is filed as physicochemical. As for the experimental part:
Evaluation of Solubility Enhancement Capability of Polymer Carriers (Thermal Binders) for Solubilizing AKBA.
(§1) 20 mg of AKBA was placed in a 10 mL cuvette, followed by the desired amount of polymer carriers to be studied to give the desired ratio of materials. A pH 6.8 phosphate buffer was added as needed to bring the volume up to 10 mL. After all material was added to the cuvette, the cuvette was sealed, sonicated for 2 hours on two separate occasions and then shaken for at least 72 hours at 37° C. The resulting material was filtered through a 0.45 micron filter and analyzed by UV-Visible spectroscopy to determine the AKBA content.

Series [5] can be described thus: Solubility enhancement of AKBA by surfactants (UV-Visible). To be noted: pH 6.8 phosphate buffer; 100 mg AKBA in 10 mL; shaken at least 72 hours at 37° C.; 0.20 micron filter. It is filed as physicochemical. The method, then:
Evaluation of Solubility Enhancement Capability of Surfactants for Solubilizing AKBA.
as §1, with “100” for “20”, “surfactant” for “polymer carriers”, “materials. Powder surfactants were measured directly into the cuvette in the amounts of 10 mg, 25 mg and 50 mg. Liquid surfactants were added by making a solution of 1.25 gm of surfactant in 250 ml of buffer, and then adding 2 ml, 5 ml, or 10 ml of the buffer solution to add 10 mg, 25 mg and 50 mg of the surfactant.” for “materials.”, “0.20” for “0.45”

Turning to `CC(=O)O[C@@H]1CC[C@@]2(C)[C@@H](CC[C@]3(C)[C@@H]2C(=O)C=C2[C@@H]4[C@@H](C)[C@H](C)CC[C@]4(C)CC[C@]23C)[C@@]1(C)C(=O)O` [AKBA, acetyl-11-keto-β-boswellic acid], in series [1], the “Average of AUC” value was 0.71* ± 0.24 μg-hr/mL, the “Average of Cmax” value is recorded as 0.35* ± 0.12 μg/mL, the “Average of Tmax” value is 4.75* ± 1.55 hours and the “Average of t1/2” value was 2.30 ± 1.43 h. The peak solubility result in series [2] is listed as “about 2 μg/ml”. Also, in series [3], the “AKBA solubility, mcg/mL Buffer (Material - Combination of Surfactants and Polymer Carriers)” value is 8.46 µg/mL. The “AKBA solubility, mcg/mL Buffer (Material - Polymer Carriers)” value in series [4] turned out to be 7.27 µg/mL. Besides, the “AKBA solubility, mcg/mL Buffer (Material - Surfactants)” value in series [5] turned out to be 0.01 µg/mL.
